Data taken from ChEMBL document CHEMBL3046027, “In vitro and in vivo antifungal activity of synthetic pure isothiocyanates against Sclerotinia sclerotiorum” (Pest Manag Sci, 2011).

Columns and labels:
[1] = tested on: Sclerotinia sclerotiorum; test: In vivo antifungal Sclerotinia sclerotiorum in Pepper (Capsicum annuum L. cv. Sera Demre) assessed as inhibition of mycelial growth in volatile phase at 204 umol/L measured after 10 to 14 weeks; assay type: functional
[2] = tested on: Sclerotinia sclerotiorum; test: Antifungal activity against Sclerotinia sclerotiorum assessed as inhibition of mycelial growth in contact phase at 3065 umol/l measured at 20 degC after 5 days; assay type: functional; settings: 120 h, read-out: GI
[3] = tested on: Sclerotinia sclerotiorum; test: Antifungal activity against Sclerotinia sclerotiorum assessed as inhibition of mycelial growth in contact phase at 2043 umol/l measured at 20 degC after 5 days; assay type: functional; settings: 120 h, read-out: GI
[4] = tested on: Sclerotinia sclerotiorum; test: Antifungal activity against Sclerotinia sclerotiorum assessed as inhibition of mycelial growth in contact phase at 1022 umol/l measured at 20 degC after 5 days; assay type: functional; settings: 120 h, read-out: GI
[5] = tested on: Sclerotinia sclerotiorum; test: Antifungal activity against Sclerotinia sclerotiorum assessed as inhibition of mycelial growth in contact phase at 920 umol/l measured at 20 degC after 5 days; assay type: functional; settings: 120 h, read-out: GI
[6] = tested on: Sclerotinia sclerotiorum; test: Antifungal activity against Sclerotinia sclerotiorum assessed as inhibition of mycelial growth in contact phase at 715 umol/l measured at 20 degC after 5 days; assay type: functional; settings: 120 h, read-out: GI
[7] = tested on: Sclerotinia sclerotiorum; test: Fungistatic activity in Sclerotinia sclerotiorum assessed as inhibition of carpogenic germination in volatile phase at 1020 umol/l measured at 20 degC after 5 days relative to control; assay type: functional; settings: 120 h
[8] = tested on: Sclerotinia sclerotiorum; test: Fungistatic activity in Sclerotinia sclerotiorum assessed as inhibition of carpogenic germination in volatile phase at 510 umol/l measured at 20 degC after 5 days relative to control; assay type: functional; settings: 120 h
[9] = tested on: Sclerotinia sclerotiorum; test: Fungistatic activity in Sclerotinia sclerotiorum assessed as inhibition of carpogenic germination in volatile phase at 102 umol/l measured at 20 degC after 5 days relative to control; assay type: functional; settings: 120 h
[10] = tested on: Sclerotinia sclerotiorum; test: Fungistatic activity in Sclerotinia sclerotiorum assessed as inhibition of carpogenic germination in volatile phase at 51 umol/l measured at 20 degC after 5 days relative to control; assay type: functional; settings: 120 h
[11] = tested on: Sclerotinia sclerotiorum; test: In vivo antifungal Sclerotinia sclerotiorum in Pepper (Capsicum annuum L. cv. Sera Demre) assessed as inhibition of mycelial growth in volatile phase at 102 umol/L measured after 10 to 14 weeks; assay type: functional
[12] = tested on: Sclerotinia sclerotiorum; test: Fungistatic activity in Sclerotinia sclerotiorum assessed as inhibition of mycelial growth in volatile phase measured at 20 degC after 5 days; assay type: functional, organism-based; settings: 120 h
[13] = tested on: Sclerotinia sclerotiorum; test: Fungistatic activity in Sclerotinia sclerotiorum assessed as inhibition of mycelial growth in contact phase measured at 20 degC after 5 days; assay type: functional, organism-based; settings: 120 h
[14] = tested on: Sclerotinia sclerotiorum; test: Antifungal activity against Sclerotinia sclerotiorum assessed as inhibition of mycelial growth in volatile phase at 1020 umol/l measured at 20 degC after 5 days; assay type: functional; settings: 120 h, read-out: GI
[15] = tested on: Sclerotinia sclerotiorum; test: Antifungal activity against Sclerotinia sclerotiorum assessed as inhibition of mycelial growth in volatile phase at 714 umol/l measured at 20 degC after 5 days; assay type: functional; settings: 120 h, read-out: GI
[16] = tested on: Sclerotinia sclerotiorum; test: Antifungal activity against Sclerotinia sclerotiorum assessed as inhibition of mycelial growth in volatile phase at 510 umol/l measured at 20 degC after 5 days; assay type: functional; settings: 120 h, read-out: GI
[17] = tested on: Sclerotinia sclerotiorum; test: Antifungal activity against Sclerotinia sclerotiorum assessed as inhibition of mycelial growth in volatile phase at 102 umol/l measured at 20 degC after 5 days; assay type: functional; settings: 120 h, read-out: GI
[18] = tested on: Sclerotinia sclerotiorum; test: Antifungal activity against Sclerotinia sclerotiorum assessed as inhibition of mycelial growth in volatile phase at 51 umol/l measured at 20 degC after 5 days; assay type: functional; settings: 120 h, read-out: GI
[19] = tested on: Sclerotinia sclerotiorum; test: Fungistatic activity in Sclerotinia sclerotiorum assessed as inhibition of mycelial growth in contact phase at 3065 umol/l measured at 20 degC after 5 days relative to control; assay type: functional; settings: 120 h, read-out: GI
[20] = tested on: Sclerotinia sclerotiorum; test: Fungitoxic activity in Sclerotinia sclerotiorum assessed as inhibition of mycelial growth in volatile phase at 1020 umol/l measured at 20 degC after 5 days relative to control; assay type: functional; settings: 120 h, read-out: GI
[21] = tested on: Sclerotinia sclerotiorum; test: Antifungal activity against Sclerotinia sclerotiorum assessed as inhibition of germination in volatile phase at 1022 umol/l measured at 20 degC after 5 days; assay type: functional; settings: 120 h
[22] = tested on: Sclerotinia sclerotiorum; test: Antifungal activity against Sclerotinia sclerotiorum assessed as inhibition of germination in volatile phase at 511 umol/l measured at 20 degC after 5 days; assay type: functional; settings: 120 h
[23] = tested on: Sclerotinia sclerotiorum; test: Antifungal activity against Sclerotinia sclerotiorum assessed as inhibition of germination in volatile phase at 307 umol/l measured at 20 degC after 5 days; assay type: functional; settings: 120 h
[24] = tested on: Sclerotinia sclerotiorum; test: Antifungal activity against Sclerotinia sclerotiorum assessed as inhibition of germination in volatile phase at 102 umol/l measured at 20 degC after 5 days; assay type: functional; settings: 120 h
[25] = tested on: Sclerotinia sclerotiorum; test: Antifungal activity against Sclerotinia sclerotiorum assessed as inhibition of germination in volatile phase at 51 umol/l measured at 20 degC after 5 days; assay type: functional; settings: 120 h
[26] = tested on: Sclerotinia sclerotiorum; test: Fungistatic activity in Sclerotinia sclerotiorum assessed as inhibition of mycelial growth in volatile phase at 714 umol/l measured at 20 degC after 5 days relative to control; assay type: functional; settings: 120 h, read-out: GI

## C=CCN=C=S [ALLYL ISOTHIOCYANATE]
[1]
  inhibition in vivo at 204 µM: 81.7%
[2]
  inhibition of growth at 3065 µM: 100%
[3]
  inhibition of growth at 2043 µM: 77%
[4]
  inhibition of growth at 1022 µM: 45.5%
[5]
  inhibition of growth at 920 µM: 37.7%
[6]
  inhibition of growth at 715 µM: 32%
[7]
  inhibition at 1020 µM: 75%
[8]
  inhibition at 510 µM: 67.5%
[9]
  inhibition at 102 µM: 67.5%
[10]
  inhibition at 51 µM: 60%
[11]
  inhibition in vivo at 102 µM: 76.7%
[12]
  EC50: 71.5 µM
[13]
  EC50: 1060 µM
[14]
  inhibition of growth at 1020 µM: 100%
[15]
  inhibition of growth at 714 µM: 100%
[16]
  inhibition of growth at 510 µM: 87%
[17]
  inhibition of growth at 102 µM: 50.7%
[18]
  inhibition of growth at 51 µM: 45.7%
[19]
  inhibition of growth at 3065 µM: 100%
[20]
  inhibition of growth at 1020 µM: 100%
[21]
  inhibition at 1022 µM: 0%
[22]
  inhibition at 511 µM: 0%
[23]
  inhibition at 307 µM: 0%
[24]
  inhibition at 102 µM: 0%
[25]
  inhibition at 51 µM: 0%
[26]
  inhibition of growth at 714 µM: 100%
